Experimental data published in ChEMBL document CHEMBL1933028, “Discovery of cyclic amine-substituted benzoic acids as PPARα agonists” (Bioorg Med Chem Lett, 2012).

Tests used:
[1] = molecular target: T1, Peroxisome proliferator-activated receptor alpha (Canis lupus familiaris, UniProt Q95N78); assay: Agonist activity at dog PPARalpha; assay type: functional
T1 sequence (Q95N78 whole entry): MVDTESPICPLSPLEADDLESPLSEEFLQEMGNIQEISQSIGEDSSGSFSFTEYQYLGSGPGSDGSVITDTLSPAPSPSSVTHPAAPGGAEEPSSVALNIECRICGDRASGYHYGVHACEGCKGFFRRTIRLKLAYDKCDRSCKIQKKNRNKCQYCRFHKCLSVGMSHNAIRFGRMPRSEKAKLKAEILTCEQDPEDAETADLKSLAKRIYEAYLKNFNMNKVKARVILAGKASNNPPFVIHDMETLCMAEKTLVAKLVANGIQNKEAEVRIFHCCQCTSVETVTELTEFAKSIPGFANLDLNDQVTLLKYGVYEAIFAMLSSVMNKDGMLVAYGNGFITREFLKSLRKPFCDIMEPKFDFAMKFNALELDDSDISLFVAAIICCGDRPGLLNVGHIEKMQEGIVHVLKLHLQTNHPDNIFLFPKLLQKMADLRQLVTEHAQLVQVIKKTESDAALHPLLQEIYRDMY

[2] = Cmax in rat at 1 mg/kg, po; assay type: ADME, organism-based; parameters: dose 1 mg/kg, route oral; conditions: in vivo
Canis familiaris [3] = assay: Antidyslipidemic activity in high-fat diet fed dog assessed as decrease in total cholesterol at 0.01 mg/kg, po administered QD for 1 week (reference value: 205 +/- 6 mg/dL); assay type: functional, Canis lupus familiaris
[4] = molecular target: T2, Peroxisome proliferator-activated receptor alpha (Rattus norvegicus, UniProt P37230); assay: Agonist activity at rat PPARalpha; assay type: functional
T2 sequence (P37230 whole entry): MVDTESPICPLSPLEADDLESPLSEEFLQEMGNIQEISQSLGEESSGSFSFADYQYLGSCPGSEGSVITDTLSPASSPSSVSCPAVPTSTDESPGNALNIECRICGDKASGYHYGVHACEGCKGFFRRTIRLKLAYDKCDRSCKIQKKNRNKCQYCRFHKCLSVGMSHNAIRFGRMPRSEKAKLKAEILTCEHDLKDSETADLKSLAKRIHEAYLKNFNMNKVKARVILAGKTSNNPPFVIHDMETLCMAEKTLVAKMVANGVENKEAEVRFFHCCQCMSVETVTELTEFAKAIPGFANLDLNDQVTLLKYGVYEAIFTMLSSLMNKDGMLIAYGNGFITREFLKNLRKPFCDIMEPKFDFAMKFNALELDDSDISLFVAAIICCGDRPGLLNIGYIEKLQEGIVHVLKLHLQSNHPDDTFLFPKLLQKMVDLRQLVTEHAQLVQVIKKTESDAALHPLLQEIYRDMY

Canis familiaris [5] = assay: Antidyslipidemic activity in high-fat diet fed dog assessed as decrease in free fatty acid at 0.01 mg/kg, po administered QD for 1 week (reference value: 0.624 +/- 0.057 mEq/L); assay type: functional, Canis lupus familiaris
[6] = Agonist activity at hamster PPARalpha; assay type: functional, Cricetinae
[7] = molecular target: T3, Peroxisome proliferator-activated receptor gamma (Mus musculus, UniProt P37238); assay: Agonist activity at mouse PPARgamma; assay type: functional
T3 sequence (P37238 whole entry): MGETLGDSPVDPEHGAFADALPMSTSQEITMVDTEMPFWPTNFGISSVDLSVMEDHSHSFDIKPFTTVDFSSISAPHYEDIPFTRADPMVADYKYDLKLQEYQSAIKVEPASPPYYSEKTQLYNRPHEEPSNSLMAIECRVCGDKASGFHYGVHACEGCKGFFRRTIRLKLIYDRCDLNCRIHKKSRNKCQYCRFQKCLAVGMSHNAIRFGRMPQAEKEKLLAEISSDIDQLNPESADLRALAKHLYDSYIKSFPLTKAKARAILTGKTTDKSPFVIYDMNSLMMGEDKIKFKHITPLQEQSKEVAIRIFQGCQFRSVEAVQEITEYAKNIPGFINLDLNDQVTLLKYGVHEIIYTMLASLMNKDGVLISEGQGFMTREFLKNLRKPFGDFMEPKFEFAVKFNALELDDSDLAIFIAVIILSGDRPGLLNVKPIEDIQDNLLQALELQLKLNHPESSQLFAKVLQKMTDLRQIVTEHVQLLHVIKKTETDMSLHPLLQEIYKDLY

[8] = molecular target: T4, Peroxisome proliferator-activated receptor delta (Mus musculus, UniProt P35396); assay: Agonist activity at mouse PPARdelta; assay type: functional
T4 sequence (P35396 whole entry): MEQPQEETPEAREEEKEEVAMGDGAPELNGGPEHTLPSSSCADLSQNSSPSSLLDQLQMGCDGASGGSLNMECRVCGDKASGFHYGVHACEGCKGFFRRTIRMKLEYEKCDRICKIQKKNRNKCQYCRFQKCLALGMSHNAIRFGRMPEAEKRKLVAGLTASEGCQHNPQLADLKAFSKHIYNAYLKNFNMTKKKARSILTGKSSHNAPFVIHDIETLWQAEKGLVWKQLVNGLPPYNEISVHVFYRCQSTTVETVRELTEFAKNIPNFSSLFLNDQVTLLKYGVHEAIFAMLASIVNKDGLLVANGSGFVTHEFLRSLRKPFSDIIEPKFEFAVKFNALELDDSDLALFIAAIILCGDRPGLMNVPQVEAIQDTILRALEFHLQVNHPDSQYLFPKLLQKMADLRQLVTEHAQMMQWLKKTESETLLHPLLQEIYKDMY

[9] = molecular target: T5, Peroxisome proliferator-activated receptor alpha (Homo sapiens, UniProt Q07869); assay: Transactivation of human PPARalpha expressed in CHO-K1 cells; assay type: cell-based
T5 sequence (Q07869 whole entry): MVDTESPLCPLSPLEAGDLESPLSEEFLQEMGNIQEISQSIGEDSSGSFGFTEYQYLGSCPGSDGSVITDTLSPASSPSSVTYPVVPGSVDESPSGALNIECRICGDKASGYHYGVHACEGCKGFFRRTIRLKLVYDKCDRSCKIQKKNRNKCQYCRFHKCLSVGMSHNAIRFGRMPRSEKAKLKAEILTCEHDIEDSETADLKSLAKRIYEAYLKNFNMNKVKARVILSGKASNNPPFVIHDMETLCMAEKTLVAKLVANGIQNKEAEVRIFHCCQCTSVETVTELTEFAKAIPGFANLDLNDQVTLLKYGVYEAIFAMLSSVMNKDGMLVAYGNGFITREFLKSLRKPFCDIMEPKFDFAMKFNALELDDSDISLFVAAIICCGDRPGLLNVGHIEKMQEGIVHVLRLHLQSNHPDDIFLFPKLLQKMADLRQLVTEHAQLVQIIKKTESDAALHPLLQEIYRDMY

Canis familiaris [10] = assay: Antidyslipidemic activity in high-fat diet fed dog assessed as decrease in total cholesterol at 0.003 mg/kg, po administered QD for 1 week (reference value: 205 +/- 6 mg/dL); assay type: functional, Canis lupus familiaris

Q: Which results are given for `Cc1nc(-c2ccc(Cl)cc2)sc1C(=O)N[C@H]1CCCN(c2cccc(C(=O)O)c2)C1`?
A: EC50 [1]: 190 nM; Cmax [2]: 316 ng/mL; Activity (Canis familiaris [3]): 176 mg/dL; EC50 [4]: 3600 nM; Activity (Canis familiaris [5]): 0.651 mEq/L; EC50 [6]: 610 nM; EC50 [7]: 12000 nM; EC50 [8]: 6600 nM; EC50 [9]: 8 nM; Activity (Canis familiaris [10]): 190 mg/dL
